Assay results taken from patent US7118895B2, “Process for producing aglycon by using diglycosidase and flavor-improved food containing the aglycon and converting agent to be used in the process” (Amano Enzyme Inc., priority 2000, dated 2006).

System: Crude diglycosidase
Assay: Examination of pH in the conversion into isoflavone aglycons by diglycosidase using soybean materials
Type: biochemical, Penicillium multicolor IAM7153
Conditions: for Decomposition efficiency of glycitin family in roasted soy flour / Decomposition efficiency of glycitin family in soymilk: 55° C.
Experimental: A substrate solution of 450 μL was prepared by suspending 50 mg of each soybean material (roasted soy flour (manufactured by Fuji Shokuryo K.K.), soymilk (manufactured by Gitoh Shokuhin K.K.), defatted soybean (manufactured by Fuji Seiyu K.K.), concentrated soybean protein (manufactured by Fuji Seiyu K.K.)), and adjusting the pH to 2 to 11 with hydrochloric acid or sodium hydroxide. Each enzyme solution of pH 2–11 wherein diglycosidase activity of crude diglycosidase was adjusted to 1.88 AU/mL was added thereto in an amount of 50 μL and the whole was reacted at 55° C. at the total volume of 500 μL. To the reaction mixture was added 700 μL of ethanol after 0, 1, 3, and 6 hours of the reaction. After stirring and ultrasonication, the mixture was subjected to centrifugal separation at 15,000 rpm and 4° C. for 10 minutes. The supernatant was filtered through a filter and the existence of isoflavone glycosides and aglycon isoflavones contained in the reaction mixture was detected by HLPC (Tables 15 to 26).

[1] = pH6.6, heat treatment of enzyme: no, reaction time 0 h
[2] = pH6.6, heat treatment of enzyme: no, reaction time 1 h
[3] = pH6.6, heat treatment of enzyme: no, reaction time 3 h
[4] = pH6.6, heat treatment of enzyme: no, reaction time 6 h
[5] = pH6.6, heat treatment of enzyme: yes, reaction time 6 h

- Decomposition efficiency of glycitin family in roasted soy flour (pH5, heat treatment of enzyme no, reaction time 0 h): 34.8
- Decomposition efficiency of glycitin family in roasted soy flour (pH5, heat treatment of enzyme no, reaction time 1 h): 22.9
- Decomposition efficiency of glycitin family in roasted soy flour (pH5, heat treatment of enzyme no, reaction time 3 h): 6.5
- Decomposition efficiency of glycitin family in roasted soy flour (pH5, heat treatment of enzyme no, reaction time 6 h): not detected
- Decomposition efficiency of glycitin family in roasted soy flour (pH5, heat treatment of enzyme yes, reaction time 6 h): 35.2
- Decomposition efficiency of glycitin family in concentrated soybean protein (pH5.1, heat treatment of enzyme: no, reaction time 0 h): 36.1%
- Decomposition efficiency of glycitin family in concentrated soybean protein (pH5.1, heat treatment of enzyme: no, reaction time 1 h): 33.2%
- Decomposition efficiency of glycitin family in concentrated soybean protein (pH5.1, heat treatment of enzyme: no, reaction time 3 h): 26.0%
- Decomposition efficiency of glycitin family in concentrated soybean protein (pH5.1, heat treatment of enzyme: no, reaction time 6 h): 21.0%
- Decomposition efficiency of glycitin family in concentrated soybean protein (pH5.1, heat treatment of enzyme: yes, reaction time 6 h): 35.8%
- Decomposition efficiency of glycitin family in defatted soybean (pH5.4, heat treatment of enzyme: no, reaction time 0 h): not detected
- Decomposition efficiency of glycitin family in defatted soybean (pH5.4, heat treatment of enzyme: no, reaction time 1 h): not detected
- Decomposition efficiency of glycitin family in defatted soybean (pH5.4, heat treatment of enzyme: no, reaction time 3 h): not detected
- Decomposition efficiency of glycitin family in defatted soybean (pH5.4, heat treatment of enzyme: no, reaction time 6 h): not detected
- Decomposition efficiency of glycitin family in defatted soybean (pH5.4, heat treatment of enzyme: yes, reaction time 6 h): not detected
- Decomposition efficiency of glycitin family in soymilk (pH6.2, heat treatment of enzyme no, reaction time 0 h): not detected
- Decomposition efficiency of glycitin family in soymilk (pH6.2, heat treatment of enzyme no, reaction time 1 h): not detected
- Decomposition efficiency of glycitin family in soymilk (pH6.2, heat treatment of enzyme no, reaction time 3 h): not detected
- Decomposition efficiency of glycitin family in soymilk (pH6.2, heat treatment of enzyme no, reaction time 6 h): not detected
- Decomposition efficiency of glycitin family in soymilk (pH6.2, heat treatment of enzyme yes, reaction time 6 h): not detected
- Decomposition efficiency of glycitin family in roasted soy flour (pH6.5, heat treatment of enzyme no, reaction time 0 h): 35.4
- Decomposition efficiency of glycitin family in roasted soy flour (pH6.5, heat treatment of enzyme no, reaction time 1 h): 35.0
- Decomposition efficiency of glycitin family in roasted soy flour (pH6.5, heat treatment of enzyme no, reaction time 3 h): 19.7
- Decomposition efficiency of glycitin family in roasted soy flour (pH6.5, heat treatment of enzyme no, reaction time 6 h): 11.9
- Decomposition efficiency of glycitin family in roasted soy flour (pH6.5, heat treatment of enzyme yes, reaction time 6 h): 35.4
- Decomposition efficiency of glycitin family in concentrated soybean protein [1]: 36.1%
- Decomposition efficiency of glycitin family in defatted soybean [1]: not detected
- Decomposition efficiency of glycitin family in concentrated soybean protein [2]: 34.8%
- Decomposition efficiency of glycitin family in defatted soybean [2]: not detected
- Decomposition efficiency of glycitin family in concentrated soybean protein [3]: 32.4%
- Decomposition efficiency of glycitin family in defatted soybean [3]: not detected
- Decomposition efficiency of glycitin family in concentrated soybean protein [4]: 29.5%
- Decomposition efficiency of glycitin family in defatted soybean [4]: not detected
- Decomposition efficiency of glycitin family in concentrated soybean protein [5]: 35.2%
- Decomposition efficiency of glycitin family in defatted soybean [5]: not detected
- Decomposition efficiency of glycitin family in soymilk (pH7.2, heat treatment of enzyme no, reaction time 0 h): not detected
- Decomposition efficiency of glycitin family in soymilk (pH7.2, heat treatment of enzyme no, reaction time 1 h): not detected
- Decomposition efficiency of glycitin family in soymilk (pH7.2, heat treatment of enzyme no, reaction time 3 h): not detected
- Decomposition efficiency of glycitin family in soymilk (pH7.2, heat treatment of enzyme no, reaction time 6 h): not detected
- Decomposition efficiency of glycitin family in soymilk (pH7.2, heat treatment of enzyme yes, reaction time 6 h): not detected
- Decomposition efficiency of glycitin family in defatted soybean (pH7.8, heat treatment of enzyme: no, reaction time 0 h): not detected
- Decomposition efficiency of glycitin family in defatted soybean (pH7.8, heat treatment of enzyme: no, reaction time 1 h): not detected
- Decomposition efficiency of glycitin family in defatted soybean (pH7.8, heat treatment of enzyme: no, reaction time 3 h): not detected
- Decomposition efficiency of glycitin family in defatted soybean (pH7.8, heat treatment of enzyme: no, reaction time 6 h): not detected
- Decomposition efficiency of glycitin family in defatted soybean (pH7.8, heat treatment of enzyme: yes, reaction time 6 h): not detected
- Decomposition efficiency of glycitin family in roasted soy flour (pH8.5, heat treatment of enzyme no, reaction time 0 h): 31.0
- Decomposition efficiency of glycitin family in roasted soy flour (pH8.5, heat treatment of enzyme no, reaction time 1 h): 32.4
- Decomposition efficiency of glycitin family in roasted soy flour (pH8.5, heat treatment of enzyme no, reaction time 3 h): 30.6
- Decomposition efficiency of glycitin family in roasted soy flour (pH8.5, heat treatment of enzyme no, reaction time 6 h): 30.2
- Decomposition efficiency of glycitin family in roasted soy flour (pH8.5, heat treatment of enzyme yes, reaction time 6 h): 31.7
- Decomposition efficiency of glycitin family in concentrated soybean protein (pH8.6, heat treatment of enzyme: no, reaction time 0 h): 33.0%
- Decomposition efficiency of glycitin family in concentrated soybean protein (pH8.6, heat treatment of enzyme: no, reaction time 1 h): 32.6%
- Decomposition efficiency of glycitin family in concentrated soybean protein (pH8.6, heat treatment of enzyme: no, reaction time 3 h): 32.6%
- Decomposition efficiency of glycitin family in concentrated soybean protein (pH8.6, heat treatment of enzyme: no, reaction time 6 h): 32.0%
- Decomposition efficiency of glycitin family in concentrated soybean protein (pH8.6, heat treatment of enzyme: yes, reaction time 6 h): 31.6%
- Decomposition efficiency of glycitin family in soymilk (pH11.6, heat treatment of enzyme no, reaction time 0 h): not detected
- Decomposition efficiency of glycitin family in soymilk (pH11.6, heat treatment of enzyme no, reaction time 1 h): not detected
- Decomposition efficiency of glycitin family in soymilk (pH11.6, heat treatment of enzyme no, reaction time 3 h): not detected
- Decomposition efficiency of glycitin family in soymilk (pH11.6, heat treatment of enzyme no, reaction time 6 h): not detected
- Decomposition efficiency of glycitin family in soymilk (pH11.6, heat treatment of enzyme yes, reaction time 6 h): not detected
SMILES: COc1cc2c(=O)c(-c3ccc(O)cc3)coc2cc1O[C@@H]1O[C@H](COC(C)=O)[C@@H](O)[C@H](O)[C@H]1O [acetylglycitin, 6″-O-acetylglycitin]
